Test results: BindingDB's records for doi:10.1021/np100503q (The Ohio State University, 2010)
pIC50: −log10 of the molar value.

Molecular target: Transcription factor p65 (Human, UniProt Q04206)
Experiment: Inhibition of NF-kappaB p65 isolated from nuclear extract of human HeLa cells assessed as blockade of binding to biotinylated consesus sequence by chemiluminescence assay

Transcription factor p65, sequence (Q04206 whole entry): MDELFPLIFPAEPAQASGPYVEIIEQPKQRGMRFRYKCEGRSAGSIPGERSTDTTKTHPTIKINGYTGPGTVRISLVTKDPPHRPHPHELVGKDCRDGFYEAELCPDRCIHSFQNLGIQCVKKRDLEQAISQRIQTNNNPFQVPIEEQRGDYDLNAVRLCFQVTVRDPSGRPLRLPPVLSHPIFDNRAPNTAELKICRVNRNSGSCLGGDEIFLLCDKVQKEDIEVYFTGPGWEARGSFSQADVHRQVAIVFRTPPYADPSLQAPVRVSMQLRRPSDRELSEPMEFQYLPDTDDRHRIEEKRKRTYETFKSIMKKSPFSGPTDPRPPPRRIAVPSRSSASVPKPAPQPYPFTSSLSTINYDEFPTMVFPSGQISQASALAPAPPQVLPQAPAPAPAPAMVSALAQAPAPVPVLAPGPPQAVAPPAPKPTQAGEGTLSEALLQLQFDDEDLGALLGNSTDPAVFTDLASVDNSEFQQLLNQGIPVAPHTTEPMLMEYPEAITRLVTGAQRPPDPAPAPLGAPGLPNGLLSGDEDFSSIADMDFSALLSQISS

Work on `COC(=O)[C@H]1[C@@H](O)[C@@]2(O)c3c(OC)cc(O[C@@H]4O[C@@H]([C@H](O)CO)CO[C@@H]4OC)cc3O[C@@]2(c2ccc(OC)cc2)[C@@H]1c1ccccc1` [5'''-episilvestrol] yielded a pIC50 of under 4.70.
